{"source": "patent US9808455B2", "system": "extra cellular levels of acetylcholine in the prefrontal cortex", "test": "extracellular acetylcholine levels in the prefrontal cortex, preclinical studies in rats", "assay_type": "in vivo", "text": "At a mechanistic level, pharmacodynamic interactions between an acetylcholinesterase inhibitor and a 5HT6 receptor antagonist are feasible. […] Although the underlying mechanism is still unknown, it is likely due to increases in the release of acetylcholine from cholinergic neurons, On the other hand, donepezil increases the extracellular levels of acetylcholine by inhibiting the acetylcholinesterase to reduce the degradation of acetylcholine."}
{"smiles": "O=S(=O)(c1ccccc1)c1cnc2c(N3CCNCC3)cccc2c1", "values": [{"measurement": "extra cellular levels of acetylcholine in the prefrontal cortex", "result": "small increase"}]}
